# Like-named read-outs stand apart in the source and are kept apart here.
# How the values were obtained:
# PHL [1] = target: T1, PHL (Photorhabdus asymbiotica, UniProt C7BLE4); assay: SPR inhibition of PHL binding to immobilized L-fucoside; settings: for Potency relative to L-Fuc: SPR inhibition, from IC50
# Description: (§1) SPR inhibition experiments were performed using the same conditions described above. The PHL lectin (0.25 μM final concentration) was mixed with various concentrations of inhibitors (1M – 0.01 mM) and injected onto the sensor chip. Pure PHL lectin was used as a control (0% inhibition). The response of the lectin bound to the sugar surface at equilibrium was plotted against the concentration of inhibitor in order to determine IC50.
# PHL [2] = target: T1, PHL; assay: Isothermal titration calorimetry (ITC); format: binding
# Description: (§2) ITC experiments were performed using an ITC200 calorimeter (Malvern, England). Experiments were performed at 25°C in buffer A (300 mM NaCl, 20 mM Tris/HCl, pH 7.5). Carbohydrate ligands were dissolved in the same buffer. Protein in the cell (50 μM) was titrated by consecutive addition (2 μl) of the ligand in the syringe (1.5–50 mM) while stirring at 1000 rpm. Control experiments performed with injections of buffer in the protein solution yielded insignificant signals. Integrated heat effects were analyzed by nonlinear regression using a single-site binding model in Origin 7 (Microcal). The experimental data fitted to a theoretical titration curve brought up stoichiometry (n), association constant Ka, and the enthalpy of binding ΔH. The other thermodynamic parameters such as free energy (ΔG) and […] (ΔS) were calculated from the equation ΔG = ΔH-TΔS = -RTlnKa, where T is the absolute temperature and R is the molar gas constant (8.314 J.mol^-1.K^-1). At least two independent titrations were carried out for each tested ligand.
# PHL [3] = target: T1, PHL; assay: Haemagglutination inhibition assay with PHL; format: cell-based; settings: for Potency towards L-fucose: haemagglutination inhibition, from MIC; for MIC (minimal inhibitory concentration) of haemagglutination by PHL: microscopy
# Description: A haemagglutination inhibition assay was performed to determine the specificity and semi-quantitative affinity of PHL interaction with the saccharides. A wide range of monosaccharides at concentrations from 50 mM to 0.5 mM were used for determining the lowest inhibiting concentration. A 20 μl mixture composed of 5 μl PHL (2mg/ml), 5 μl saccharide, and 10 μl 10% RBCs was prepared (all components of reaction were in PBS buffer). After 10 minutes, the reaction was observed using a Levenhuk microscope.
# PHL [4] = target: T1, PHL; format: binding; settings: calculated from hexaplicates
# PHL [5] = assay: SPR inhibition of PHL binding to immobilized L-fucoside; parameters: species or system Photorhabdus asymbiotica; settings: IC50 from SPR inhibition, PLL data ref 21
# Description: as §1
# [6] = system: phenoloxidase (PO) in haemolymph of G. mellonella; assay: Phenoloxidase activity in insect haemolymph; format: biochemical, Galleria mellonella; settings: 0.2M sugar, PHL 475 μg
# Description: Larvae of the greater wax moth, Galleria mellonella, were reared on an artificial diet at 30 ± 1°C in constant darkness. Haemolymph was collected from the seventh instar larvae by cutting a proleg and pooling the haemolymph into a tube containing phenylthiourea (1 mg/ml in PBS; haemolymph mixed with phenylthiourea in the ratio 9:1 [v/v]) or used directly for the determination of phenoloxidase activity.
# PO activity was measured according to previously published studies. Haemolymph of G. mellonella (5 μl) was collected directly to 95 μl of PHL (475 μg in PBS for all experiments except dose-dependence assay where different dilutions of PHL were used), PLL (475 μg in PBS), BSA (475 μg in PBS) or PBS (pH 7.4) and incubated for 10 min at room temperature. After incubation, 40 μl of reaction mixture was transported to the microplate well and 160 μl of 3,4-dihydroxy-DL-phenylalanine (3 mg/ml in PBS) was added as substrate. The reaction was allowed to proceed for 30 min, and absorbance was measured in 2-min intervals at 492 nm with a Sunrise reader (Tecan, Switzerland). PO activity was expressed as linear increase in absorbance per minute. For the inhibition assay, PHL was pre-incubated with 0.2M L-Fuc or Me-α-L-Fuc for 10 min at room temperature prior to mixing with haemolymph.
# PHL [7] = assay: Isothermal titration calorimetry (ITC); format: binding, Photorhabdus asymbiotica; settings: ITC, PLL data ref 21
# Description: as §2
# [8] = SPR, PHL 0.25 μM binding to immobilized L-fucoside, 25°C, read-out: IC50
# [9] = ITC at 25°C, stoichiometry fixed to 3, read-out: KD (n = 3)
# [10] = ITC at 25°C, stoichiometry fixed to 4, read-out: KD (n = 4)
# [11] = glycan array signal of labelled PHL for the printed glycan/polysaccharide, Semiotic slide 10085636
# [12] = glycan array signal of PHL per printed glycan, microarray chip (Semiotic, Moscow; Slide number 10085636), 488 channel
# T1 sequence (C7BLE4 1-369): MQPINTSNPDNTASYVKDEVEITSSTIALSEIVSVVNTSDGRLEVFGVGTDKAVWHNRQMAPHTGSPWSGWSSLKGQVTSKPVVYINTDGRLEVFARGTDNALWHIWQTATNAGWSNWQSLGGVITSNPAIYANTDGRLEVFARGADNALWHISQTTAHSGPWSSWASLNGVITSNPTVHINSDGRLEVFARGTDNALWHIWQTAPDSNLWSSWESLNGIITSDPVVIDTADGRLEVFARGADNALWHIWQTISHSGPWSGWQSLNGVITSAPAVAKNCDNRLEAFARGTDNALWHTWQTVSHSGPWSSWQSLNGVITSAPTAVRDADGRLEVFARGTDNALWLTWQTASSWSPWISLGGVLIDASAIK
compound,measurement,setting,value
CC(=O)N[C@H]1C(O)O[C@H](CO)[C@@H](O[C@@H]2O[C@@H](C)[C@@H](O)[C@@H](O)[C@@H]2O)[C@@H]1O (some centres unmarked) [Fucα1-4GlcNAc],Potency relative to L-Fuc,PHL [1],0.49
same,IC50,PHL [1]; [8],730 µM
same,Kd,PHL [2]; [9],4460 ± 310 µM
same,Kd,PHL [2]; [10],4370 ± 310 µM
same,Potency towards L-fucose,PHL [3],1.3
same,MIC (minimal inhibitory concentration) of haemagglutination by PHL,PHL [3],2500 µM
CC(=O)N[C@H]1[C@@H](OC[C@H](N)C(=O)O)O[C@H](CO)[C@H](O)[C@@H]1O [GalNAcα1-OSer],Median,PHL [4]; [11],71
CC(=O)N[C@@H]1[C@@H](O)[C@H](O[C@@H]2O[C@H](CO)[C@@H](O)[C@H](O)[C@H]2NC(C)=O)[C@@H](CO)O[C@H]1NC(=O)C[C@H](N)C(=O)O [GlcNAcβ1-4GlcNAcβ-Asn],Median,PHL [4]; [11],77
NCC(O)C(O)C(O)C(O)CO (centres unmarked) [HOCH2(HOCH)4CH2NH2],Median,PHL [4]; [11],70
"C[C@H](O)[C@@H](O)[C@@H](O)[C@H](O)C=O [L-Fuc, L-fucose]",IC50,PHL [1],360 µM
same,fold better inhibition effect for PHL than for PLL,PHL [5],15 fold
same,PHL activation of melanisation in the presence of sugar,[6],inhibited
same,Kd,PHL [2]; [9],1400 ± 30 µM
same,Kd,PHL [2]; [10],1330 ± 40 µM
same,fold higher affinity of PHL than PLL,PHL [7],approx. 4 fold
same,Potency towards L-fucose,PHL [3],1
same,MIC (minimal inhibitory concentration) of haemagglutination by PHL,PHL [3],3125 µM
"CO[C@@H]1O[C@@H](C)[C@@H](O)[C@@H](O)[C@@H]1O [Me-α-L-Fuc, Methyl-α-L-fucopyranoside]",IC50,PHL [1]; [8],40 µM
same,fold better inhibition effect for PHL than for PLL,PHL [5],42 fold
same,PHL activation of melanisation in the presence of sugar,[6],inhibited
same,Kd,PHL [2]; [9],260 ± 40 µM
same,Kd,PHL [2]; [10],210 µM
same,binding stoichiometry,"PHL [2]; ITC, fitted",approx. 2.9
same,Kd,"PHL [2]; ITC, stoichiometry not fixed, read-out: equilibrium dissociation constant",270 µM
same,fold higher affinity of PHL than PLL,PHL [7],approx. 4 fold
same,Potency towards L-fucose,PHL [3],8
same,MIC (minimal inhibitory concentration) of haemagglutination by PHL,PHL [3],390 µM
"CO[C@H]1O[C@@H](C)[C@@H](O)[C@@H](O)[C@@H]1O [Me-β-L-Fuc, methyl-β-L-fucopyranoside]",Potency relative to L-Fuc,PHL [1],0.47
same,IC50,PHL [1]; [8],770 µM
same,Kd,PHL [2]; [9],3550 ± 90 µM
same,Kd,PHL [2]; [10],3480 ± 90 µM
same,Potency towards L-fucose,PHL [3],0.5
same,MIC (minimal inhibitory concentration) of haemagglutination by PHL,PHL [3],6250 µM
Curdlan,Median,PHL [4]; [11],75
GalNAcα1-3(Fucα1-2)Galβ1-4GlcNAcβ-sp3,Median,PHL [4]; [12],79
GalNAcα1-3Galβ1-4(Fucα1-3)GlcNAcβ-sp3,Median,PHL [4]; [11],73
GalNAcβ1-4GlcNAcβ-sp2,Median,PHL [4]; [12],87
Galα1-3Galβ1-4GlcNAcβ-sp3,Median,PHL [4]; [11],70
Galα1-4GlcNAcβ-sp8,Median,PHL [4]; [11],75
Galβ1-4GlcNAcβ1-6(Galβ1-4GlcNAcβ1-3)GalNAcα-sp3,Median,PHL [4]; [11],71
Galβ1-4GlcNAcβ-sp8,Median,PHL [4]; [12],83
Galβ1-6Galβ-sp4,Median,PHL [4]; [12],85
GlcNAcβ1-4Galβ1-4GlcNAcβ-sp2,Median,PHL [4]; [12],86
GlcNAcβ-sp8,Median,PHL [4]; [12],78
